# Laboratory results: patent US8524782B2, “Key intermediate for the preparation of Stilbenes, solid forms of Pterostilbene, and methods for making the same” (Laurus Labs Private Limited, priority 2008, dated 2013)
# “And” between values parts separate entries of the source, which are not always exact repeats. Equal entries are not always repeated.
# Tests used:
# [1] = Thermogravimetric (TG) analysis; format: physicochemical; conditions: TGA, up to 150° C., attributed to residual solvent
# Protocol: In Table 4, for Form I, the 26.4 kJ/mol value for the enthalpy of fusion was calculated from a single 10° C./min pattern whereas the 25.6 kJ/mol value was calculated as an average from three 50° C./min patterns. DSC results for Form III indicated a melt onset at 76° C., while HSM results indicated it was 81° C. Material decomposition was observed upon heating above approximately 170° C. The minor weight loss observed up to 150° C. was attributed to loss of residual solvent. FIG. 1 is a DSC stack plot for Forms I-V of Pterostilbene.
# Thermogravimetric (TG) analyses were performed using a TA Instruments Q5000 IR thermogravimetric analyzer. Temperature calibration was performed using nickel and Alumel. Each sample was placed in an aluminum pan. The pan was hermetically sealed with a lid that was opened using a punching mechanism just before being inserted into the TG furnace. The furnace was heated under nitrogen at a rate of 10° C./minute.
# [2] = Water vapor adsorption/desorption (WVS); format: physicochemical; conditions: for Sorption (5-95-5% RH): adsorption 5 to 95% RH; for Desorption (5-95-5% RH): desorption 95 to 5% RH
# Protocol: Water vapor adsorption/desorption (WVS) data were collected on a VTI SGA-100 Vapor Sorption Analyzer. NaCl and PVP were used as calibration standards. Samples were not dried prior to analysis. Adsorption and desorption data were collected over a range from 5 to 95% RH at 10% RH increments under a nitrogen purge. The equilibrium criterion used for analysis was less than 0.0100% weight change in 5 minutes with a maximum equilibration time of 3 hours if the weight criterion was not met. Data were not corrected for the initial moisture content of the samples.
# [3] = Slurry interconversion experiments in toluene (XRPD of recovered solids); format: physicochemical; conditions: from enthalpy of fusion, melting point and slurry interconversion in toluene
# Protocol: Thermodynamic stability relationships of known forms of Pterostilbene were studied by calculating the enthalpy of fusion for each form (from DSC data, Table 4) and through slurry interconversion experiments in toluene in Table 1.
# Saturated solutions of Pterostilbene were prepared at ambient temperature in toluene. The solutions were filtered and seeds of each form were added. The samples were agitated for days and the solids recovered by vacuum filtration. The solids were collected and allowed to dry under ambient conditions.
# [4] = Enthalpy (heat) of fusion from DSC data; format: physicochemical; conditions: for Heat of fusion (ΔH), single analyses / Heat of fusion (ΔH), average: DSC 50° C./min; for Heat of fusion (ΔH), average: average of three
# Protocol: In Table 4, for Form I, the 26.4 kJ/mol value for the enthalpy of fusion was calculated from a single 10° C./min pattern whereas the 25.6 kJ/mol value was calculated as an average from three 50° C./min patterns. DSC results for Form III indicated a melt onset at 76° C., while HSM results indicated it was 81° C. Material decomposition was observed upon heating above approximately 170° C. The minor weight loss observed up to 150° C. was attributed to loss of residual solvent. FIG. 1 is a DSC stack plot for Forms I-V of Pterostilbene. Differential Scanning Calorimetry (DSC) analyses were performed using a TA Instruments (New Castle, Del.) Q2000 differential scanning calorimeter, equipped with a refrigerated cooling system (RCS). Temperature calibration was performed using NIST traceable indium metal. The sample was placed into an aluminum DSC pan, and the weight was accurately recorded. The pan was covered with a lid perforated with a laser pinhole, and the lid was hermetically sealed. A weighed, crimped aluminum pan was placed on the reference side of the cell. The sample cell was equilibrated at sub-ambient temperature and heated under a nitrogen purge at a rate of 10° C./minute. Higher and lower heating rates were also investigated (from 1 to 300° C./min). Alternatively, data were obtained using a modulation amplitude of +/−0.8° C. and a 60 second period with an underlying heating rate of 2° C./min from −50 to 150° C. The reported glass transition temperatures are obtained from the inflection of the step change in the reversible heat flow versus temperature curve. Thermodynamic stability relationships of various forms of Pterostilbene were studied by calculating the heat of fusion for each form (from DSC data, see table 4) and through slurry interconversion experiments in toluene. Heat of fusion (ΔH) for Form I was determined (from […] DSC data) to be approximately 100 J/g or 25.6 kJ/mol. […] Heat of fusion for Form II was determined (from 10° C./min DSC data) to be approximately 92 J/g or 23.6 kJ/mol. […] Heat of fusion for Form III was estimated (from 50° C./min DSC data) to be approximately 75 J/g or 19.2 kJ/mol.
# [5] = Intrinsic dissolution rate in water; format: physicochemical
# Protocol: The polymorphs of Pterostilbene described herein can also be characterized by their respective dissolution rates. […] (open symbols) and 37° C. (filled symbols). […] UV-VIS spectrophotometry: samples were analyzed using a SpectraMax M2 Microplate Reader. Wavelength calibration and photometric accuracy was performed using the SpectraMax […] software as an internal calibration of the instrument. The instrument was blanked with an empty quartz glass plate. Samples were analyzed in the UV range at ambient temperature in the wells of a 96-well quartz plate. The absorbance spectra of water was collected and subtracted from the spectra of the drug solutions to calculate concentrations. Samples were performed in duplicate and absorbance data was averaged. The standard curve was determined based on absorbance at 310 nm.
# [6] = Physical stability of amorphous Pterostilbene under ambient conditions; format: physicochemical
# From the text: FIG. 9 is the x-ray diffraction pattern of x-ray amorphous Pterostilbene. By use the term “x-ray amorphous” what is meant is a material whose powder x-ray powder diffraction pattern is consistent with an amorphous “halo” as that term is understood in the art. By inspection, one of ordinary skill in the art would recognize that the pattern in FIG. 9 does represents a material without any significant crystallinity. However, the material may be nanocrystalline or some other disordered solid. The glass transition temperature of amorphous Pterostilbene was experimentally determined (by modulated DSC) to be approximately 4° C.
# [7] = Stress conditions, stability of Pterostilbene Form II; format: physicochemical
# From the text: Stress conditions were employed to evaluate the stability of Pterostilbene Form II. […] Ambient and elevated temperature water slurry experiments starting with Form II material were set up in an effort to produce a hydrate of Pterostilbene.
# [8] = cited from earlier work
# [9] = cited from earlier work; remark: listed apart in the source
# [10] = DSC 50° C./min (average of three for Forms I and II)
smiles,measurement,setting,value
COc1cc(/C=C/c2ccc(O)cc2)cc(OC)c1 [Form I],% weight loss (at 150° C.),[1],0.5%
same,Sorption (5-95-5% RH),[2],0.2/0.2 weight %
same,Desorption (5-95-5% RH),[2],0.2/0.2 weight %
same,Thermodynamic stability relationship of forms,[3],thermodynamically stable crystal form
same,Enthalpy of fusion,[4]; DSC 10° C./min,~6.12 kcal/mol and 6.31 kcal/mol
same,Heat of fusion (ΔH),[4]; DSC 10° C./min,approximately 100 J/g
same,Enthalpy of fusion,"[4]; DSC 10° C./min, listed as I",6.12 kcal/mol
same,"Heat of fusion (ΔH), single analyses",[4],106 J/g and 102 J/g and 101 J/g
same,Enthalpy of fusion,[4]; [10],6.31 kcal/mol and 6.12 kcal/mol
same,Enthalpy of fusion,"[4]; DSC 50° C./min (average of three for Forms I and II), listed as I",6.31 kcal/mol
same,"Heat of fusion (ΔH), average",[4],103 J/g
same,Intrinsic dissolution rate,[5]; 25° C.,0.83 ± 0.06 μg/cm^−2/min
same,Intrinsic dissolution rate,[5]; 37° C.,2.05 ± 0.03 μg/cm^−2/min
COc1cc(/C=C/c2ccc(O)cc2)cc(OC)c1 [Form IV],% weight loss (at 150° C.),[1]; listed as IV,0.2%
same,Sorption (5-95-5% RH),[2]; listed as IV,0.5/0.5 weight %
same,Desorption (5-95-5% RH),[2]; listed as IV,0.5/0.5 weight %
COc1cc(/C=C/c2ccc(O)cc2)cc(OC)c1 [amorphous Pterostilbene],Physical stability of the amorphous form,[6],rapidly crystallized
COc1cc(/C=C/c2ccc(O)cc2)cc(OC)c1 [Form II],% weight loss (at 150° C.),[1],0.2%
same,Sorption (5-95-5% RH),[2],0.2/0.2 weight %
same,Desorption (5-95-5% RH),[2],0.2/0.2 weight %
same,Thermodynamic stability relationship of forms,[3],thermodynamically favored compared to Forms III-V
same,Enthalpy of fusion,[4]; DSC 10° C./min,~5.64 kcal/mol
same,Heat of fusion (ΔH),[4]; DSC 10° C./min,approximately 92 J/g
same,Enthalpy of fusion,"[4]; DSC 10° C./min, listed as II",5.64 kcal/mol
same,"Heat of fusion (ΔH), single analyses",[4],100 J/g and 91 J/g and 92 J/g
same,Enthalpy of fusion,[4]; [10],5.78 kcal/mol
same,Enthalpy of fusion,"[4]; DSC 50° C./min (average of three for Forms I and II), listed as II",5.78 kcal/mol
same,"Heat of fusion (ΔH), average",[4],94 J/g
same,Intrinsic dissolution rate,[5]; 25° C.,0.90 ± 0.03 μg/cm^−2/min
same,Intrinsic dissolution rate,[5]; 37° C.,2.35 ± 0.08 μg/cm^−2/min
same,Organic vapor stress,[7],structurally unchanged
same,Heat stress,[7]; 80° C. for 3 days,conversion to Form I
same,Chemical stability on ambient exposure,"[7]; ambient (air, but not light) exposure, 34 days",chemically unchanged
same,Structural stability on ambient exposure,"[7]; ambient (air, but not light) exposure, 70 days",structurally unchanged
same,Hydrate formation in water slurry,[7]; ambient and elevated temperature water slurry,No hydrate was observed
same,Moderate humidity stress,[7]; ambient and elevated temperatures,did not result in deliquescence
same,Resulting material of water slurry,[7]; ambient temperature,Form II
same,Resulting material of water slurry,[7]; elevated temperature,Form I
COc1cc(/C=C/c2ccc(O)cc2)cc(OC)c1 [Form V],% weight loss (at 150° C.),[1]; listed as V,0.4%
same,Sorption (5-95-5% RH),[2]; listed as V,0.8 weight %
same,Desorption (5-95-5% RH),[2]; listed as V,0.5 weight %
"COc1cc(/C=C/c2ccc(O)cc2)cc(OC)c1 [Pterostilbene, trans-3,5-dimethoxy-4′-hydroxystilbene]",Solubility in water,[8],poor
same,Bioavailability,[9],poor
COc1cc(/C=C/c2ccc(O)cc2)cc(OC)c1 [Form III],% weight loss (at 150° C.),[1],0.2%
same,Sorption (5-95-5% RH),[2],0.6 weight %
same,Desorption (5-95-5% RH),[2],0.5 weight %
same,"Heat of fusion (ΔH), single analyses",[4],approximately 75 J/g
same,Enthalpy of fusion,[4]; [10],~4.59 kcal/mol
same,Enthalpy of fusion,"[4]; DSC 50° C./min (average of three for Forms I and II), listed as III",4.59 kcal/mol
